Data as given in patent publication US7713950B2, “Antibacterial 1-(4-mono-and di-halomethylsulphonylphenyl)-2-acylamino-3-fluoroproponals and preparation thereof” (Intervet Inc., priority 2003, dated 2010).
Converted amounts (≈) assume the structure as drawn.

Experiments:
Format in all cases: cell-based
Pasteurella multocida = assay: Broth microdilution susceptibility testing (MIC), Pasteurella multocida; conditions: broth microdilution (NCCLS, 2002), read-out: Minimal inhibitory concentration against Pasteurella multocida
Method: (§1) The list is not intended, nor should it be construed, to limit the scope of this invention in any manner whatsoever.
(§2) Compounds were tested for antimicrobial activity against several bacterial stains using standard broth microdilution susceptibility testing methodology (NCCLS, 2002). […] The enhanced activity of Compound 1 is especially noteworthy.
(§3) NCCLS. 2002. Performance standards for antimicrobial disk and dilution susceptibility tests for bacteria isolated from animals; approved standard-second edition. NCCLS document M31-A2 [ISBN 1-56238-461-9]. NCCLS, 940 West Valley Road, Suite 1400, Wayne, Pa. 19087-1898 USA.

Mannheimia haemolytica = assay: Broth microdilution susceptibility testing (MIC), Mannheimia haemolytica; conditions: broth microdilution (NCCLS, 2002), read-out: Minimal inhibitory concentration against Mannheimia haemolytica
Method: as §1, §2, §3

Escherichia coli = assay: Broth microdilution susceptibility testing (MIC), Escherichia coli; conditions: broth microdilution (NCCLS, 2002), read-out: Minimal inhibitory concentration against Escherichia coli
Method: as §1, §2, §3

[1] = system: Florfenicol-resistant Pasteurella multocida; assay: Broth microdilution susceptibility testing (MIC), florfenicol-resistant Pasteurella multocida; conditions: for MIC: Pasteurella multocida, broth microdilution (NCCLS, 2002), florfenicol-resistant strain, read-out: Minimal inhibitory concentration against Florfenicol-resistant Pasteurella multocida
Method: as §1, §2, §3

Staphylococcus aureus = assay: Broth microdilution susceptibility testing (MIC), Staphylococcus aureus; conditions: broth microdilution (NCCLS, 2002), read-out: Minimal inhibitory concentration against Staphylococcus aureus
Method: as §1, §2, §3

five bacterial strains = assay: Broth microdilution susceptibility testing, comparison with florfenicol over the strain panel; conditions: five bacterial strains of Table 2
Method: as §1, §2, §3

`O=C(N[C@H](CO)[C@H](O)c1ccc([N+](=O)[O-])cc1)C(Cl)Cl` [Chloramphenicol, reference compound] was tested, and the MIC (Pasteurella multocida) was 0.25 mg/L (≈ 0.774 µM), the MIC (Mannheimia haemolytica) was 1 mg/L (≈ 3.09 µM) and the MIC (Escherichia coli) was 4 mg/L (≈ 12.4 µM). The MIC [1] was 16 mg/L (≈ 49.5 µM) and the MIC (Staphylococcus aureus) was 8 mg/L (≈ 24.8 µM).

With `O=C(N[C@H](CF)[C@H](O)c1ccc(S(=O)(=O)CF)cc1)C(Cl)Cl` [Compound 1, N-((1S,2R)-1-(Fluoromethyl)-2-{4-[(fluoromethyl)sulfonyl]phenyl}-2-hydroxyethyl)-2,2-dichloroacetamide] the MIC (Pasteurella multocida) was 0.06 mg/L (≈ 0.159 µM), the MIC (Mannheimia haemolytica) was 0.5 mg/L (≈ 1.33 µM) and the MIC (Escherichia coli) was 4 mg/L (≈ 10.6 µM). For the same molecule, the “Activity compared with florfenicol over the strains tested” value (five bacterial strains) was “more active than florfenicol for all five bacterial strains”, the MIC [1] was 2 mg/L (≈ 5.32 µM) and the “Activity relative to florfenicol against florfenicol-resistant Pasteurella multocida” value ([1]; versus florfenicol) was 8 fold. The MIC (Staphylococcus aureus) was 2 mg/L (≈ 5.32 µM).

Molecule `O=C(N[C@H](CF)[C@H](O)c1ccc(S(=O)(=O)CF)cc1)C(F)(F)F` [Compound 2] has an MIC (Pasteurella multocida) of 1 mg/L (≈ 2.77 µM), an MIC (Mannheimia haemolytica) of 0.5 mg/L (≈ 1.38 µM) and an MIC (Escherichia coli) of 32 mg/L (≈ 88.6 µM). The MIC [1] was 8 mg/L (≈ 22.1 µM) and the MIC (Staphylococcus aureus) was 16 mg/L (≈ 44.3 µM).

`O=C(N[C@H](CF)[C@H](O)c1ccc(S(=O)(=O)C(Cl)Cl)cc1)C(Cl)Cl` [Compound 3] gave an MIC (Pasteurella multocida) of 0.5 mg/L (≈ 1.17 µM), an MIC (Mannheimia haemolytica) of 0.5 mg/L (≈ 1.17 µM) and an MIC (Escherichia coli) greater than 128 mg/L. The MIC [1] was 4 mg/L (≈ 9.37 µM) and the MIC (Staphylococcus aureus) was 8 mg/L (≈ 18.7 µM).

Work on `N#CCC(=O)N[C@H](CF)[C@H](O)c1ccc(S(=O)(=O)CF)cc1` [Compound 4] yielded an MIC (Pasteurella multocida) of 1 mg/L (≈ 3.01 µM), an MIC (Mannheimia haemolytica) of 0.5 mg/L (≈ 1.5 µM) and an MIC (Escherichia coli) of 16 mg/L (≈ 48.1 µM). For the same molecule, the MIC [1] was greater than 128 mg/L and the MIC (Staphylococcus aureus) was 8 mg/L (≈ 24.1 µM).

For `[N-]=[N+]=NCC(=O)N[C@H](CF)[C@H](O)c1ccc(S(=O)(=O)CF)cc1` [Compound 5], the MIC (Pasteurella multocida) was 0.25 mg/L (≈ 0.718 µM), the MIC (Mannheimia haemolytica) was 0.25 mg/L (≈ 0.718 µM) and the MIC (Escherichia coli) was 8 mg/L (≈ 23 µM). For the same molecule, the MIC [1] was 16 mg/L (≈ 45.9 µM) and the MIC (Staphylococcus aureus) was 8 mg/L (≈ 23 µM).

`C[C@@H](N)C(=O)N[C@H](CF)[C@H](O)c1ccc(S(=O)(=O)CF)cc1` [Compound 6] showed an MIC (Pasteurella multocida) of 1 mg/L (≈ 2.97 µM), an MIC (Mannheimia haemolytica) of 1 mg/L (≈ 2.97 µM) and an MIC (Escherichia coli) of 32 mg/L (≈ 95.1 µM). For the same molecule, the MIC [1] was 128 mg/L (≈ 381 µM) and the MIC (Staphylococcus aureus) was 64 mg/L (≈ 190 µM).

With `NCC(=O)N[C@H](CF)[C@H](O)c1ccc(S(=O)(=O)CF)cc1` [Compound 7] the MIC (Pasteurella multocida) was 1 mg/L (≈ 3.1 µM), the MIC (Mannheimia haemolytica) was 1 mg/L (≈ 3.1 µM) and the MIC (Escherichia coli) was 128 mg/L (≈ 397 µM). For the same molecule, the MIC [1] was greater than 128 mg/L and the MIC (Staphylococcus aureus) was 64 mg/L (≈ 199 µM).

Molecule `O=C(N[C@H](CF)[C@H](O)c1ccc(S(=O)(=O)C(F)F)cc1)C(Cl)Cl` [Compound 8] has an MIC (Pasteurella multocida) of 0.125 mg/L (≈ 0.317 µM), an MIC (Mannheimia haemolytica) of 0.5 mg/L (≈ 1.27 µM) and an MIC (Escherichia coli) of 16 mg/L (≈ 40.6 µM). It also gave an MIC [1] of 2 mg/L (≈ 5.07 µM) and an MIC (Staphylococcus aureus) of 4 mg/L (≈ 10.1 µM).

For `O=C(N[C@H](CF)[C@H](O)c1ccc(S(=O)(=O)CF)cc1)C(F)F` [Compound 9], the MIC (Pasteurella multocida) was 0.25 mg/L (≈ 0.728 µM), the MIC (Mannheimia haemolytica) was 0.5 mg/L (≈ 1.46 µM) and the MIC (Escherichia coli) was 4 mg/L (≈ 11.7 µM). It also gave an MIC [1] of 8 mg/L (≈ 23.3 µM) and an MIC (Staphylococcus aureus) of 8 mg/L (≈ 23.3 µM).

`O=C(N[C@H](CF)[C@H](O)c1ccc(S(=O)(=O)CF)cc1)C(Cl)Br` (stereo partly drawn) [Compound 10] gave an MIC (Pasteurella multocida) of 0.25 mg/L (≈ 0.594 µM), an MIC (Mannheimia haemolytica) of 0.5 mg/L (≈ 1.19 µM) and an MIC (Escherichia coli) of 8 mg/L (≈ 19 µM). The MIC [1] was 4 mg/L (≈ 9.51 µM) and the MIC (Staphylococcus aureus) was 4 mg/L (≈ 9.51 µM).

In the case of `O=C(N[C@H](CF)[C@H](O)c1ccc(S(=O)(=O)CF)cc1)C(F)Cl` (stereo partly drawn) [Compound 11], the MIC (Pasteurella multocida) was 0.25 mg/L (≈ 0.695 µM), the MIC (Mannheimia haemolytica) was 0.25 mg/L (≈ 0.695 µM) and the MIC (Escherichia coli) was 4 mg/L (≈ 11.1 µM). The MIC [1] was 4 mg/L (≈ 11.1 µM) and the MIC (Staphylococcus aureus) was 2 mg/L (≈ 5.56 µM).

In the case of `CC(=O)N[C@H](CF)[C@H](O)c1ccc(S(=O)(=O)CF)cc1` [Compound 12], the MIC (Pasteurella multocida) was 1 mg/L (≈ 3.25 µM), the MIC (Mannheimia haemolytica) was 2 mg/L (≈ 6.51 µM) and the MIC (Escherichia coli) was greater than 128 mg/L. It also gave an MIC [1] of 32 mg/L (≈ 104 µM) and an MIC (Staphylococcus aureus) greater than 128 mg/L.

In the case of `CS(=O)(=O)c1ccc([C@@H](O)[C@@H](CF)NC(=O)C(Cl)Cl)cc1` [Florfenicol, reference compound], the MIC (Pasteurella multocida) was 0.25 mg/L (≈ 0.698 µM), the MIC (Mannheimia haemolytica) was 1 mg/L (≈ 2.79 µM) and the MIC (Escherichia coli) was 8 mg/L (≈ 22.3 µM). The MIC [1] was 16 mg/L (≈ 44.7 µM) and the MIC (Staphylococcus aureus) was 8 mg/L (≈ 22.3 µM).

With `CS(=O)(=O)c1ccc([C@@H](O)[C@@H](CO)NC(=O)C(Cl)Cl)cc1` [Thiamphenicol, reference compound] the MIC (Pasteurella multocida) was 0.25 mg/L (≈ 0.702 µM), the MIC (Mannheimia haemolytica) was 1 mg/L (≈ 2.81 µM) and the MIC (Escherichia coli) was 64 mg/L (≈ 180 µM).
